The source of these data is BindingDB's records for doi:10.1124/jpet.104.081257 (Abbott Laboratories, 2005).

In test [1] the target is T1, Thyroid hormone receptor alpha (Rattus norvegicus, UniProt P63059).
T1 sequence (P63059 whole entry): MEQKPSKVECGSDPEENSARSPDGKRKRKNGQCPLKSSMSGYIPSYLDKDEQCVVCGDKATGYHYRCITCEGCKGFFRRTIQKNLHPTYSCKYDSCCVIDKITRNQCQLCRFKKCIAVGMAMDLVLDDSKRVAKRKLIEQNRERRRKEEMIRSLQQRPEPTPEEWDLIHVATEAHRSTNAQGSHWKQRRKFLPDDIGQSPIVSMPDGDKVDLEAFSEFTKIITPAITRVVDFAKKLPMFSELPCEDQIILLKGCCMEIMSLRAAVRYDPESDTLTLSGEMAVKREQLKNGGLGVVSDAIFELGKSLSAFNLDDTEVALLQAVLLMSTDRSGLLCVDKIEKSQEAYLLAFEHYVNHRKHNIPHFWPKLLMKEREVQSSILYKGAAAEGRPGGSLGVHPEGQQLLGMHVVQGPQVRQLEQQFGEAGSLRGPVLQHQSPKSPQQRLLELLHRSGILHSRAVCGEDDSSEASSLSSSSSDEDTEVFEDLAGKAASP

The target in test [2] is T2, Mineralocorticoid receptor (Rattus norvegicus, UniProt P22199).
T2 sequence (P22199 whole entry): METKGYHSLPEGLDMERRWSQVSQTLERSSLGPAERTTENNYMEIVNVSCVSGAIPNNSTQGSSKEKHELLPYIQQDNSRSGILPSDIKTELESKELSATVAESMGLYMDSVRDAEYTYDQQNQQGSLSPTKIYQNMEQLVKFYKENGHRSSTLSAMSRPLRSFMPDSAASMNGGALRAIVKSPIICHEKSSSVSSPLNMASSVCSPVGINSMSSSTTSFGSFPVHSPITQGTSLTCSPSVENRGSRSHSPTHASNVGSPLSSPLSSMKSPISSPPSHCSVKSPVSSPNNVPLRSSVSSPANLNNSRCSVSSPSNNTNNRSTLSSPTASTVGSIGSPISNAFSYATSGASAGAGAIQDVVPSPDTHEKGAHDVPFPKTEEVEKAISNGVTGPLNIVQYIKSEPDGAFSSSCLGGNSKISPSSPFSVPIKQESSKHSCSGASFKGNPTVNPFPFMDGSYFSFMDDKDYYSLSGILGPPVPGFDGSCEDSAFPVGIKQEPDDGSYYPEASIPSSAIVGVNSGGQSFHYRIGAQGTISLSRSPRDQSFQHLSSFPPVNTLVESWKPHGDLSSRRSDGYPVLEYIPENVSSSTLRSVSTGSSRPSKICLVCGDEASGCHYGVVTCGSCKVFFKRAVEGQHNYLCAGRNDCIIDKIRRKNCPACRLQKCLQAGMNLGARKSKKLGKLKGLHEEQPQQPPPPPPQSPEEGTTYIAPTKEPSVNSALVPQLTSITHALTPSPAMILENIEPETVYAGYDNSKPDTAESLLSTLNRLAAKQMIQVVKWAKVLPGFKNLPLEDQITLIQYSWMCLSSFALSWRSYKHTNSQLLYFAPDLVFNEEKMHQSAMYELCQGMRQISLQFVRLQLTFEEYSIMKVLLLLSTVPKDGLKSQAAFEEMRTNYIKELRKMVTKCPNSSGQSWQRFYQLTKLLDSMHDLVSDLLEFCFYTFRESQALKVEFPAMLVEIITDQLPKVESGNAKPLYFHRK

In the next test the target is T3, Estrogen receptor (Rattus norvegicus, UniProt P06211).
T3 sequence (P06211 whole entry): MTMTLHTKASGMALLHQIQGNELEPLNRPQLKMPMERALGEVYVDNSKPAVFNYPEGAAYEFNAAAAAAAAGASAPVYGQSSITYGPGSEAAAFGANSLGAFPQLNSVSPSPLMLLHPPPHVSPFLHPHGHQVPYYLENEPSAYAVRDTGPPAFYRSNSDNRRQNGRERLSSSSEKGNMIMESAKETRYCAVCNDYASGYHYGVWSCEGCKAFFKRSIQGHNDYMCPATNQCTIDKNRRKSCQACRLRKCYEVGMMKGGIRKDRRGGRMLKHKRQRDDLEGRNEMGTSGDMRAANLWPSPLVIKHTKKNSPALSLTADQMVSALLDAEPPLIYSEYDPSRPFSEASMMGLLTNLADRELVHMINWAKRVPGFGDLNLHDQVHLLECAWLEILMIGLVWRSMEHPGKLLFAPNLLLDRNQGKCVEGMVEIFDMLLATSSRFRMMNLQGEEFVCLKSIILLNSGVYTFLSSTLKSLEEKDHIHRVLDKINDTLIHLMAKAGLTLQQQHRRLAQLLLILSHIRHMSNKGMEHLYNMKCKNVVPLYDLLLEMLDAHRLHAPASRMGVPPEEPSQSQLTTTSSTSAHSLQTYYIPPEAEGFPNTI

Test [3] has as its target T4, Thyroid hormone receptor beta (Rattus norvegicus, UniProt P18113).
T4 sequence (P18113 whole entry): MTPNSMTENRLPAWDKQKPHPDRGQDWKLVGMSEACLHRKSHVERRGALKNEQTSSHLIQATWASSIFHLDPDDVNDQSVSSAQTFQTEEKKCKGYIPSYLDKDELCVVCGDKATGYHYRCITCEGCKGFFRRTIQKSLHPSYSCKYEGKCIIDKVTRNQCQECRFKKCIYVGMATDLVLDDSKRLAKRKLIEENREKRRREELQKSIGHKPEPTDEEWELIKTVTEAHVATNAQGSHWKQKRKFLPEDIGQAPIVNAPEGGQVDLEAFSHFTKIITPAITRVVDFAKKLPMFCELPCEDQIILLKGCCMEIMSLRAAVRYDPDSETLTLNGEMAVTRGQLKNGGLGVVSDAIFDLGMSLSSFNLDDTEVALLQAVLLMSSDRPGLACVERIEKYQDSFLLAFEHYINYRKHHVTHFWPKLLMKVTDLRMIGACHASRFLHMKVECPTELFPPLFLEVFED

Another test addresses Estrogen receptor beta (Homo sapiens, UniProt Q92731).
Test [4] addresses Progesterone receptor (Homo sapiens) (UniProt P06401).
The next test deals with T5, Glucocorticoid receptor (Rattus norvegicus, UniProt P06536).
T5 sequence (P06536 whole entry): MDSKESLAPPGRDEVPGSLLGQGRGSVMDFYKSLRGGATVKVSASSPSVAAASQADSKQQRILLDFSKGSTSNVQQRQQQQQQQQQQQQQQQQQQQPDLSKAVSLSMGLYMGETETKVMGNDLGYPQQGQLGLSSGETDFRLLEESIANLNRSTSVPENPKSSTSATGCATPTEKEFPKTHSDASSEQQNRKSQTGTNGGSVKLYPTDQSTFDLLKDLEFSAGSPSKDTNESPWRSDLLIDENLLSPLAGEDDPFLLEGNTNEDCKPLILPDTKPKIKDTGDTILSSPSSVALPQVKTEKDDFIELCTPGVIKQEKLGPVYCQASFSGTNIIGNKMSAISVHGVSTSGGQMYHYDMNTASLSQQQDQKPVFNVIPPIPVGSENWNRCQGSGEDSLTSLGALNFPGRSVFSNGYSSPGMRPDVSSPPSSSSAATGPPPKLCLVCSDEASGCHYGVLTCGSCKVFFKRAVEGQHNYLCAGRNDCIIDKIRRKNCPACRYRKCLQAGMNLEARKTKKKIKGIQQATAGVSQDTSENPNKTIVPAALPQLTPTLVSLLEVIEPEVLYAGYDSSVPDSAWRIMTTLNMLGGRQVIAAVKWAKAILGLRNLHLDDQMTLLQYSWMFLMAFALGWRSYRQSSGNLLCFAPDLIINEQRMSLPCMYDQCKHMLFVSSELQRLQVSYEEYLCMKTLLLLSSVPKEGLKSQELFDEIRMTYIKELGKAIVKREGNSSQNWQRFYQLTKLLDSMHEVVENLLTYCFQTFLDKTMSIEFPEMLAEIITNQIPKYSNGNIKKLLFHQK

Chain of Progesterone receptor (Homo sapiens) (P06401 whole entry, looked up): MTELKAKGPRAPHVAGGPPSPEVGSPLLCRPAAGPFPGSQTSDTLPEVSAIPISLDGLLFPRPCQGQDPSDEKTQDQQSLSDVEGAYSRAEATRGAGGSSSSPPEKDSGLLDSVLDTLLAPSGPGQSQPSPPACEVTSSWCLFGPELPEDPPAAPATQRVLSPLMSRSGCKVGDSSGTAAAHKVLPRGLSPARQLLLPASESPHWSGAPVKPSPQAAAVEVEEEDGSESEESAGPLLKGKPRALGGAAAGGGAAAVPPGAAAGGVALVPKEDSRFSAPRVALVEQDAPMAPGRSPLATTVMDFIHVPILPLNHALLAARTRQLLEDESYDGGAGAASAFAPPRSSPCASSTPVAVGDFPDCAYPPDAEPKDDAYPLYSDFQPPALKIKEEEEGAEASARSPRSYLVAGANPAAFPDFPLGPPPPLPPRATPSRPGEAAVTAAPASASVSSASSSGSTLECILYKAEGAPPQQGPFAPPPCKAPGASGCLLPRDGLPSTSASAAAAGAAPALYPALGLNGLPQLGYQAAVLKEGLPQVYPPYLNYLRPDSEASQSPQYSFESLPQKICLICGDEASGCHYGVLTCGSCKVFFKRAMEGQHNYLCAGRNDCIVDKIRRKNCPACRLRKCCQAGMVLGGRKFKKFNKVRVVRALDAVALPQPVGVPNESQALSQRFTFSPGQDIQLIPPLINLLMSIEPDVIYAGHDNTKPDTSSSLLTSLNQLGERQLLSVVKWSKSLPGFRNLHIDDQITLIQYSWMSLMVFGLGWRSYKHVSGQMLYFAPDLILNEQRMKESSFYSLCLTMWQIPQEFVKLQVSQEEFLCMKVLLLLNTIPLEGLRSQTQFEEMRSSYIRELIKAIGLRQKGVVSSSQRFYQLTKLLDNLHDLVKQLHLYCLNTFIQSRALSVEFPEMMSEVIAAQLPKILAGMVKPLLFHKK
Chain of Estrogen receptor beta (Q92731 whole entry): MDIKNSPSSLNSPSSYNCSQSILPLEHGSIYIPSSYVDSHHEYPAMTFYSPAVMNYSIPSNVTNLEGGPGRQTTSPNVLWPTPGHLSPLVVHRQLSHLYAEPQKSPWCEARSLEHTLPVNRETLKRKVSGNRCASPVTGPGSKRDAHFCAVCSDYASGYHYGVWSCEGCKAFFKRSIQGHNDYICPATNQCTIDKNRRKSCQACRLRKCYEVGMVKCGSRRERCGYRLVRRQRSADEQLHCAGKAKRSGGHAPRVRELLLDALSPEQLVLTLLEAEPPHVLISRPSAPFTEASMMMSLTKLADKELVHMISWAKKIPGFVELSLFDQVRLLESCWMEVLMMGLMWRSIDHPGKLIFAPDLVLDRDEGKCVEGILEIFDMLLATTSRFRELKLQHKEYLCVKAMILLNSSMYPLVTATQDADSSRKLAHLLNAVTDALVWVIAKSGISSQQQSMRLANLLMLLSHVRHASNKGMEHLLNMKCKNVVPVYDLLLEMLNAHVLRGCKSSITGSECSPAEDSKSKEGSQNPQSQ

What is called Ki is a measure of affinity in units of concentration, obtained from inhibition or displacement. Lower therefore signals higher affinity. Take `CC#C[C@]1(O)CC[C@H]2[C@@H]3CCC4=CC(=O)CCC4=C3[C@@H](c3ccc(N(C)C)cc3)C[C@@]21C` [CAS_84371-65-3]: the Ki in test [1] was over 1250 nM; in test [2], 640 nM; on Estrogen receptor, over 200 nM; in test [3], over 2250 nM.
Turning to `CC#C[C@]1(O)CC[C@H]2[C@@H]3CCC4=CC(=O)CCC4=C3[C@@H](c3ccc(N(C)CCO[C@H]4CCC5C(C4)C[C@@H](O)C4C5C[C@H](O)C5C(C(C)CCC(=O)O)CCC45)cc3)C[C@@]21C` (stereo partly specified) [A-348441], the inhibition constant Ki on Estrogen receptor beta is 110 nM; in test [1] it was 670 nM; in test [4], 0.81 nM; in test [2] it was 440 nM; at Estrogen receptor, 12 nM; on Glucocorticoid receptor, 0.27 nM. Moreover, the Ki in test [3] was found to be 1500 nM.
